Measured values: the supplement of paper PMC10307832

What was measured:
Test in all cases: relative viability (nuclei count vs DMSO), 5 days (fraction); higher = more cells survive
COR-L23 = system: COR-L23
In short: (§1)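 Relative viability is defined as nuclei in treated wells over nuclei in vehicle wells. Duplicate plates were run and medians reported. Lung cancer cell lines in 1536-well plates were dosed by pin tool one day after seeding, with one drug or with a fixed anchor-drug dose plus five library-drug doses (not always all listed) in √10 steps, and nuclei were counted after 5 days.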

NCI-H2085 = system: NCI-H2085
In short: as §1

NCI-H1563 = system: NCI-H1563
In short: as §1

LU99A = system: LU99A
In short: as §1

NCI-H1395 = system: NCI-H1395
In short: as §1

NCI-H1793 = system: NCI-H1793
In short: as §1

HCC-827 = system: HCC-827
In short: as §1

NCI-H1944 = system: NCI-H1944
In short: as §1

H3255 = system: H3255
In short: as §1

LCLC-103H = system: LCLC-103H
In short: as §1

NCI-H650 = system: NCI-H650
In short: as §1

NCI-H520 = system: NCI-H520
In short: as §1

NCI-H1651 = system: NCI-H1651
In short: as §1

NCI-H2023 = system: NCI-H2023
In short: as §1

NCI-H838 = system: NCI-H838
In short: as §1

EMC-BAC-2 = system: EMC-BAC-2
In short: as §1

NCI-H2405 = system: NCI-H2405
In short: as §1

SK-MES-1 = system: SK-MES-1
In short: as §1

EPLC-272H = system: EPLC-272H
In short: as §1

NCI-H2087 = system: NCI-H2087
In short: as §1

HCC-44 = system: HCC-44
In short: as §1

Nc1ccn([C@@H]2O[C@H](CO)[C@@H](O)[C@@H]2O)c(=O)n1 [Cytarabine] + C[C@]1(O)C[C@@H](c2nc(-c3ccc4ccc(-c5ccccc5)nc4c3)c3c(N)nccn32)C1 [Linsitinib] (partner 1 µM)
relative viability (COR-L23; first compound 0.005 µM): 0.787
relative viability (COR-L23; first compound 0.01581 µM): 0.806
relative viability (COR-L23; first compound 0.05 µM): 0.552
relative viability (COR-L23; first compound 0.1581 µM): 0.159
relative viability (COR-L23; first compound 0.5 µM): 0.122
relative viability (NCI-H2085; first compound 0.005 µM): 0.677
relative viability (NCI-H2085; first compound 0.01581 µM): 0.89
relative viability (NCI-H2085; first compound 0.05 µM): 0.859
relative viability (NCI-H2085; first compound 0.1581 µM): 0.585
relative viability (NCI-H2085; first compound 0.5 µM): 0.55
relative viability (NCI-H1563; first compound 0.005 µM): 1.14
relative viability (NCI-H1563; first compound 0.01581 µM): 1.3
relative viability (NCI-H1563; first compound 0.05 µM): 1.04
relative viability (NCI-H1563; first compound 0.1581 µM): 1
relative viability (NCI-H1563; first compound 0.5 µM): 0.769
relative viability (LU99A; first compound 0.005 µM): 0.621
relative viability (LU99A; first compound 0.01581 µM): 0.577
relative viability (LU99A; first compound 0.05 µM): 0.561
relative viability (LU99A; first compound 0.1581 µM): 0.508
relative viability (LU99A; first compound 0.5 µM): 0.47
relative viability (NCI-H1395; first compound 0.005 µM): 0.89
relative viability (NCI-H1395; first compound 0.01581 µM): 0.709
relative viability (NCI-H1395; first compound 0.05 µM): 0.784
relative viability (NCI-H1395; first compound 0.1581 µM): 0.466
relative viability (NCI-H1395; first compound 0.5 µM): 0.38
relative viability (NCI-H1793; first compound 0.005 µM): 0.941
relative viability (NCI-H1793; first compound 0.01581 µM): 0.899
relative viability (NCI-H1793; first compound 0.05 µM): 0.89
relative viability (NCI-H1793; first compound 0.1581 µM): 0.732
relative viability (NCI-H1793; first compound 0.5 µM): 0.391
relative viability (HCC-827; first compound 0.005 µM): 0.631
relative viability (HCC-827; first compound 0.01581 µM): 0.604
relative viability (HCC-827; first compound 0.05 µM): 0.488
relative viability (HCC-827; first compound 0.1581 µM): 0.266
relative viability (HCC-827; first compound 0.5 µM): 0.262
relative viability (NCI-H1944; first compound 0.005 µM): 1.1
relative viability (NCI-H1944; first compound 0.01581 µM): 0.492
relative viability (NCI-H1944; first compound 0.05 µM): 0.424
relative viability (NCI-H1944; first compound 0.1581 µM): 0.216
relative viability (NCI-H1944; first compound 0.5 µM): 0.195
relative viability (H3255; first compound 0.005 µM): 0.945
relative viability (H3255; first compound 0.01581 µM): 0.885
relative viability (H3255; first compound 0.05 µM): 0.808
relative viability (H3255; first compound 0.1581 µM): 0.784
relative viability (H3255; first compound 0.5 µM): 0.674
relative viability (LCLC-103H; first compound 0.005 µM): 0.976
relative viability (LCLC-103H; first compound 0.01581 µM): 1.22
relative viability (LCLC-103H; first compound 0.05 µM): 1.12
relative viability (LCLC-103H; first compound 0.1581 µM): 1.09
relative viability (LCLC-103H; first compound 0.5 µM): 1.18
relative viability (NCI-H650; first compound 0.005 µM): 0.763
relative viability (NCI-H650; first compound 0.01581 µM): 0.475
relative viability (NCI-H650; first compound 0.05 µM): 0.379
relative viability (NCI-H650; first compound 0.1581 µM): 0.209
relative viability (NCI-H650; first compound 0.5 µM): 0.234
relative viability (NCI-H520; first compound 0.005 µM): 0.556
relative viability (NCI-H520; first compound 0.01581 µM): 1.09
relative viability (NCI-H520; first compound 0.05 µM): 0.952
relative viability (NCI-H520; first compound 0.1581 µM): 0.751
relative viability (NCI-H520; first compound 0.5 µM): 0.752
relative viability (NCI-H1651; first compound 0.005 µM): 0.916
relative viability (NCI-H1651; first compound 0.01581 µM): 0.98
relative viability (NCI-H1651; first compound 0.05 µM): 1.11
relative viability (NCI-H1651; first compound 0.1581 µM): 0.468
relative viability (NCI-H1651; first compound 0.5 µM): 0.327
relative viability (NCI-H2023; first compound 0.005 µM): 0.492
relative viability (NCI-H2023; first compound 0.01581 µM): 0.302
relative viability (NCI-H2023; first compound 0.05 µM): 0.149
relative viability (NCI-H2023; first compound 0.1581 µM): 0.0967
relative viability (NCI-H2023; first compound 0.5 µM): 0.0876
relative viability (NCI-H838; first compound 0.005 µM): 1.07
relative viability (NCI-H838; first compound 0.01581 µM): 1.01
relative viability (NCI-H838; first compound 0.05 µM): 0.875
relative viability (NCI-H838; first compound 0.1581 µM): 0.418
relative viability (NCI-H838; first compound 0.5 µM): 0.295
relative viability (EMC-BAC-2; first compound 0.005 µM): 0.695
relative viability (EMC-BAC-2; first compound 0.01581 µM): 0.751
relative viability (EMC-BAC-2; first compound 0.05 µM): 0.688
relative viability (EMC-BAC-2; first compound 0.1581 µM): 0.295
relative viability (EMC-BAC-2; first compound 0.5 µM): 0.247
relative viability (NCI-H2405; first compound 0.005 µM): 0.933
relative viability (NCI-H2405; first compound 0.01581 µM): 0.714
relative viability (NCI-H2405; first compound 0.05 µM): 0.661
relative viability (NCI-H2405; first compound 0.1581 µM): 0.498
relative viability (NCI-H2405; first compound 0.5 µM): 0.383
relative viability (SK-MES-1; first compound 0.005 µM): 0.905
relative viability (SK-MES-1; first compound 0.01581 µM): 0.82
relative viability (SK-MES-1; first compound 0.05 µM): 0.368
relative viability (SK-MES-1; first compound 0.1581 µM): 0.252
relative viability (SK-MES-1; first compound 0.5 µM): 0.255
relative viability (EPLC-272H; first compound 0.005 µM): 0.883
relative viability (EPLC-272H; first compound 0.01581 µM): 0.834
relative viability (EPLC-272H; first compound 0.05 µM): 0.945
relative viability (EPLC-272H; first compound 0.1581 µM): 0.522
relative viability (EPLC-272H; first compound 0.5 µM): 0.532
relative viability (NCI-H2087; first compound 0.005 µM): 0.958
relative viability (NCI-H2087; first compound 0.01581 µM): 1.07
relative viability (NCI-H2087; first compound 0.05 µM): 0.827
relative viability (NCI-H2087; first compound 0.1581 µM): 0.752
relative viability (NCI-H2087; first compound 0.5 µM): 0.623
relative viability (HCC-44; first compound 0.005 µM): 0.675
relative viability (HCC-44; first compound 0.01581 µM): 0.664
relative viability (HCC-44; first compound 0.05 µM): 0.384
relative viability (HCC-44; first compound 0.1581 µM): 0.48
relative viability (HCC-44; first compound 0.5 µM): 0.397
